In patent publication US20060183189A1, “Regulatable gene expression in mammalian cells and mammals” (priority 2003, published 2006):

Legend:
AlkS = biological target: T1, AlkS (Ectopseudomonas oleovorans, UniProt P17051); test: AlkS-based regulatable SEAP expression in CHO-K1 cells; format: cell-based, Pseudomonas putida (oleovorans); settings: CHO-K1 cells transfected with AlkS and PSV40 promoter with 8 OP repeats; upon addition of regulating compound
T1 construct: expressed in transfected cells; host or cells: CHO-K1
T1 sequence (P17051 whole entry): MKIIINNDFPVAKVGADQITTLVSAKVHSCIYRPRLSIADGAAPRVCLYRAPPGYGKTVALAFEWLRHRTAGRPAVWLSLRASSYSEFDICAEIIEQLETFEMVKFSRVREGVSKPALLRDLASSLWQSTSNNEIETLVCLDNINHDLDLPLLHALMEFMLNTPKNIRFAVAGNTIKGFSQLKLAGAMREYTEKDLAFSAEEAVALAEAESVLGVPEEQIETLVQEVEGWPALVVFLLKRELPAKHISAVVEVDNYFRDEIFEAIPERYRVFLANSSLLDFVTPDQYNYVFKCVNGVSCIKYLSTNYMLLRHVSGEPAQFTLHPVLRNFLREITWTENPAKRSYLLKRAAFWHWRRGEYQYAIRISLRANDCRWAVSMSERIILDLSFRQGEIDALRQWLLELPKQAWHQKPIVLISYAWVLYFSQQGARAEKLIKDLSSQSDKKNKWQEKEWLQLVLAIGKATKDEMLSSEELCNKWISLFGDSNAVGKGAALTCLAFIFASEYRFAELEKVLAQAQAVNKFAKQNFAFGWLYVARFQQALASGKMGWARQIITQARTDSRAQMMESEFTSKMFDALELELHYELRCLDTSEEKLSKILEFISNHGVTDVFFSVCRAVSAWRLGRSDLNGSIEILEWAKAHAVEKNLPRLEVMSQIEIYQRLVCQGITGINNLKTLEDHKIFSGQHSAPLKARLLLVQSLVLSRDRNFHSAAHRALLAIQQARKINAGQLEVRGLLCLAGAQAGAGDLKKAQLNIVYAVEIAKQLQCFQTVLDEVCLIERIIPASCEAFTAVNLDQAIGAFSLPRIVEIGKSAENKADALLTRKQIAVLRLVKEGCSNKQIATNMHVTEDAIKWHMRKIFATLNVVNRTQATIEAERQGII
Source text: A regulatable expression system responsive to liquid or gaseous inducers based on bacterial elements is constructed by PCR-cloning the Pseudomonas putida (oleovorans)-derived RTF AlkS (Smiths et al., 2001. Plasmid 46, 16-24) into the mammalian expression vector pEF6V5-His TOPO (Invitrogen, Carlsbad, Calif.). The responsive promoter is constructed by cloning 8 repeats of the AlkS-specific OP site downstream of the simian virus 40 promoter PSV40 followed by a reporter gene, the secreted alkaline phosphatase SEAP.
Transfection of the plasmids encoding AlkS and the responsive promoter controlling SEAP expression in CHO-K1 cells results in SEAP expression levels typical for PSV40-driven constitutive expression.

AlcR = biological target: T2, AlcR (Emericella nidulans, UniProt P21228); test: Gas-phase controlled SEAP expression of stable CHO-K1-derived cell line in a bioreactor; format: cell-based, Aspergillus nidulans; settings: 2.5 L bioreactor, gassing in air containing 340 ppm acetaldehyde, then 40 ppm; shut down by sparging with pure air
T2 construct: excising alcR (EcoRI/SalI) from an alcR cDNA containing vector; expressed in transfected cells; host or cells: CHO-K1
T2 sequence (P21228 whole entry): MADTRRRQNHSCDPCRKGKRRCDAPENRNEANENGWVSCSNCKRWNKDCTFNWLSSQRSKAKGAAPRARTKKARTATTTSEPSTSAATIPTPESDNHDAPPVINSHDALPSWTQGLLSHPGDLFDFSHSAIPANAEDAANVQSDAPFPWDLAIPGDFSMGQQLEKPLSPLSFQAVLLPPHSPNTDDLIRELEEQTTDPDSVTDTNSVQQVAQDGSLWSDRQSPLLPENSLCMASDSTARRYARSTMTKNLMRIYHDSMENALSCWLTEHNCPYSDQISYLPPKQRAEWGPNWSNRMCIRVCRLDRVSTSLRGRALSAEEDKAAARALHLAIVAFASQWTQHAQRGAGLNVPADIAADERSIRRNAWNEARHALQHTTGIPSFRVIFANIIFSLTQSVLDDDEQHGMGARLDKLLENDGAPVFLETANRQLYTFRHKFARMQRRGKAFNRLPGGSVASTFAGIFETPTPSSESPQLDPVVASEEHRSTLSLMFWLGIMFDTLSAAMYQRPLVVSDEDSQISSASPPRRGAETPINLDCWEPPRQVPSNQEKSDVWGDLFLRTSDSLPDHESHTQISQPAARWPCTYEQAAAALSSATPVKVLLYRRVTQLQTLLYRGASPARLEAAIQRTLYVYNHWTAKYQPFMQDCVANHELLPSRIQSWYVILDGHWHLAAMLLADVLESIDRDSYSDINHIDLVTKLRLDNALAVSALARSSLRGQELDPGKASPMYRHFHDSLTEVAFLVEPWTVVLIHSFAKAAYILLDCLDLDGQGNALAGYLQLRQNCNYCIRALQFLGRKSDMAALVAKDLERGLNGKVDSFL
Source text: A stable CHO-K1-derivative engineered for acetaldehyde-inducible SEAP expression is cultivated in a bioreactor. […] The specific SEAP productivities (μU/10^6 cells/h) are indicated over time (h).
A CHO-K1-derived cell line is constructed for gas-inducible expression of a secreted alkaline phosphatase (SEAP) by stable transfection/transduction with plasmid pWW192 (see Example 1) and a pWW506-based viral particle (see Example 4).

SMILES	SEAP expression (AlkS)	SEAP expression (AlcR)
CCOCC [ethyl ether]	decreases in a dose-dependent manner	
O=C(C1CC1)C1CC1 [dicyclopropylketone]	decreases in a dose-dependent manner	
CC=O [acetaldehyde]		induced
CCOC(C)=O [ethyl acetate]	decreases in a dose-dependent manner	
